Data: patent US20250269036A1, “METHODS FOR ENHANCEMENT OF ENGINEERED CELL THERAPIES IN CANCER TREATMENT” (PURDUE RESEARCH FOUNDATION, priority 2021, published 2025)

Columns and labels:
BM-induced mice = system: BM-induced mice
Experimental: Studies were also performed to determine if macrophages in pulmonary fibrotic lungs might be specifically targeted with folate-linked drugs in vivo. […] (The BM model is widely regarded to be helpful in terms of enabling mechanistic investigations relevant to fibrogenesis in an in vivo context.)
More specifically, eight-week-old C57BL6 male mice from Charles River (average weight 22 g to 25 g) were housed under pathogen-free conditions at room temperature (22° C.) under a 12 hours light-dark cycle. Mice were placed on a folate deficient chow (Envigo Teklad Global Rat Food Pellets) for 1 week prior to the BM or PBS instillation. Fresh water and folate-deficient diet were freely available. All animal procedures were approved by the Purdue Animal Care and Use Committee in accordance with National Institute of Health guidelines.
Thereafter, the mice were anesthetized with ketamine/xylazine and the necks of the mice were shaved using hair remover lotion and then sterilized with 70% alcohol. A small incision was made on the neck to visualize the trachea. Mice were positioned at a 75-degree angle and injected intratracheally with 100 μL sterile PBS or BM (Cayman Chemicals, Ann Arbor, MI; #13877) dissolved in PBS (0.75 mg/kg) using a 1 cc syringe with 26 G needle. Body weights were monitored every other day throughout the experiment.
After 2 hours, mice were sacrificed using CO2 asphyxiation and an incision in the skin from the abdomen to neck was immediately made to expose the lungs and trachea. A small cut in the upper trachea was then introduced for insertion of a blunted, 22-gauge needle, and a nylon string was tied around the trachea to seal the trachea around the needle. The trachea (containing the inserted needle), lungs and heart were then removed en masse by carefully cutting the connective tissue beneath the lungs, and the bronchus of left lung was clipped with a Dieffenbach vessel clip. The right lung was injected with PBS and aspirated 3 times using a 1 ml syringe, and the recovered lavage fluid was saved on ice.
Bronchoalveolar lavage fluid (BALF) was then analyzed to determine how the targeted TLR7 agonist works. BALF samples were centrifuged at 1500 rpm for 5 min at 4° C. and the supernatant was aliquoted and stored at −80° C. for cytokine/chemokine analyses. Cell pellets were resuspended and cultured in pre-warmed RPMI 1640 medium for 2 hours and then washed 3× with pre-warmed PBS prior to harvesting for qPCR assay. The right lung was then tied with a nylon string and used for subsequent analysis of hydroxyproline content. The left lung was inflated with 1 ml PBS using the inserted syringe and transferred to 10% formalin solution for subsequent histological analyses.
Lobes of the right lung collected above were weighed, placed in a pressure-tight vial (Supelco Inc., Bellefonte, PA; #27003), and hydrolyzed with 6N HCl (10 ml/g, v/w) in a sand bath at 120° C. for 3.5 hours. The hydrolyzed solution was cooled at 4° C. for 15 min and transferred to a 1.5 ml Eppendorf tube prior to centrifugation at 12,000 rcf for 15 min at 4° C. Supernatant was carefully collected, aliquoted and used for hydroxyproline (HYP) analysis.
For the subsequent HYP analysis, 10 μl of sample was transferred into a 96-well plate and neutralized with 10 μl of 5.3 M sodium hydroxide solution. Isopropanol (40 μl) was then added to each well followed by 20 μl of oxidation buffer and the mixture was incubated on a shaker at room temperature for 5 min. […]

[1] = system: M2-induced human monocyte-derived macrophages; experiment: Reprogramming of M2-induced human monocyte-derived macrophages; assay type: cell-based; conditions: 100 nM, 2 hours + 46 hours, excess FA-glucosamine
Experimental: Changes in both sets of cytokines were inhibited by blockade of unoccupied folate receptors with excess FA-glucosamine (2+46h, competition).

healthy mice = experiment: Plasma cytokine levels in healthy mice after tail vein injection; assay type: in vivo
Experimental: (FIGS. 20A-C) Measurement of plasma IL-6 (FIG. 20A), IFNα (FIG. 20B) and TNFα (FIG. 20C) (n=3). (FIGS. 20D-F). The effect of drug concentration on plasma levels of IL-6 (FIG. 20D), IFNα (FIG. 20E), and TNFα (FIG. 20F) was determined at 1.5h, 1h, or 1h after treatment, respectively (n=2) (FIG. 20G).
(FIGS. 36C and 36D). The effect of drug on plasma levels of IL-6 (FIG. 36C) and TNFα (FIG. 36D) was determined at 1 hour or 1.5 hours after treatment.

[2] = system: IL-4, IL-6 plus IL-13 stimulated THP-1 cells (M2-like macrophages); experiment: Reprogramming of M2-polarized THP-1 macrophages, marker mRNA by qPCR; assay type: cell-based, human
Experimental: THP-1 cells were initially selected as a model system because this human monocytic cell line is known to acquire an M2-like phenotype and produce significant quantities of anti-inflammatory cytokines upon stimulation with IL-4, IL-6 plus IL-13.
THP-1 cells were seeded into 96-well plates at a density of 60,000 cells/well. Cells were differentiated into unpolarized macrophages by 48 hours incubation with 200 nM PMA followed by 24 hours incubation in fresh RPMI medium. […] Cultures were maintained at 37° C. in a humidified 5% CO2 incubator.
Total RNA was isolated from 1×10^5-2×10^5 macrophages using a Quick-RNATM MicroPrep kit (Zymo Research, Irvine, CA) according to the manufacturer-recommended protocol. […] IL-6, CXCL10, IFNα, IFN-γ and CD86 were used as markers for an M1 phenotype, while CCL18, CD206, CD163 and Arg1 were employed as markers for the M2 phenotype. IL-1β, PDGFβ, MMP9 and TIMP 3 were measured as indicators of an anti-inflammatory phenotype. IRAK-4 was used as an indicator of TLR7 stimulation. To control for specificity of the amplification products, a melting curve analysis was performed. […] Each sample was analyzed independently in triplicate for each marker.
Primarily, human monocytic (THP-1) cells were induced to the M2-like phenotype using the methods and materials previously described. In particular, THP-1 cells were seeded into 96-well plates at a density of 60,000 cells/well. Cells were differentiated into unpolarized macrophages by 48h incubation with 200 nM PMA followed by 24 hours incubation in fresh RPMI medium. The resulting macrophages were polarized to an M2-like phenotype by incubation with 20 ng/ml IL-4, 20 ng/ml IL-13, and 5 ng/mL IL-6 for 48h. Cultures were maintained at 37° C. in a humidified 5% CO2 incubator.
In addition to the nonconjugated TLR7 agonist, conjugated compounds of the present disclosure were likewise evaluated. […] The cells were subsequently harvested for gene analysis by qPCR and the relative expression of CCL18 (FIG. 14A), CD206 (FIG. 14B), and IL-1β (FIG. 14C) analyzed.

[3] = Stability during incubation in culture media; assay type: physicochemical; conditions: 37° C. in the culture media, 48 hours
Experimental: Indeed, Compound 1B retained the original structure after 48 hours incubation.

fibrotic lungs = experiment: Staining of healthy and fibrotic lung sections (DAPI, anti-F4/80, anti-CD206); assay type: in vivo, mice; conditions: differences between treated groups
From the text: Sections from the same healthy and fibrotic lungs described in FIG. 6 were stained with DAPI (nuclei; blue), anti-F4/80 (macrophages; red), and anti-CD206 (M2 macrophage marker; green), and images were obtained with a Leica Versa 8 whole-slide scanner as described in Methods (n=2). Scale bars, 100 μm.

[4] = system: M2-induced THP-1 macrophages; experiment: Secreted CCL18 and IL-1β in THP-1 macrophage supernatants by ELISA; assay type: cell-based, human
Experimental: FIGS. 6A-6D show graphical data representative of various marker levels measured from M2-induced THP-1 macrophages treated with different concentrations of drugs for 48 hours (FIGS. 6A and 6B) or for 2 hours, then displaced with fresh medium and cultured for the remaining 46 hours (FIGS. 6C and 6D). In both cases, cell supernatants were collected and secreted CCL18 protein and IL-1β was detected by ELISA.
CCL18 and IL-1β were quantified in induced THP-1 cell supernatants using a human DuoSet ELISA Development System (R&D Systems Europe, Abingdon, UK; #DY394-05) and an IL-1 beta Human ELISA Kit (Thermo Fisher Scientific, Waltham, MA; #BMS224-2) as described by manufactures. BALF samples were analyzed for mouse IFN-γ using ELISA MAX™ Deluxe (Biolegend, San Diego, CA; #430804).

[5] = 2 hours with drug, then drug-free medium
[6] = incubated continuously for 48 hours, ELISA

## CCCCc1nc2c(N)nc3ccccc3c2n1CC(C)(C)OC(=O)OCCSSCC(NC(=O)CCC(NC(=O)c1ccc(NCc2cnc3nc(N)[nH]c(=O)c3n2)cc1)C(=O)O)C(=O)O (centres unmarked) [Compound 1B]
BM-induced mice; 0, 1, 3 or 10 nmoles
  lung histology with increasing dose: lung histology improved
BM-induced mice; 0, 1, 3 or 10 nmoles every other day from day 10, day 21
  hydroxyproline content of lung hydrolysates, order of efficacy by dose: 10 nmol/mouse>3 nmol/mouse>1 nmol/mouse>0 nmol/mouse
BM-induced mice; different doses, day 21
  total number of BALF cells: decreased in a dose-dependent manner
BM-induced mice; tail vein injection
  collagen stain (Masson's trichrome): strongly suppressed
BM-induced mice; treated beginning on day 10
  lung architecture (H&E staining): lung architecture that resembles that of healthy mice
[1]
  downregulation of biomarkers in presence of competitor: blocked
Healthy mice; effect of drug concentration, 1.5h, 1h or 1h after treatment
  inflammatory cytokine release, dose comparison: stimulates less inflammatory cytokine release than half the dose of Compound 1A
Healthy mice; healthy mice, tail vein, 10 nmol
  systemic cytokine release (plasma IL-6, IFNα, TNFα): does not
[2]; 2 hours incubation, harvested immediately or after further 46 hours
  cancer/M2-type markers (CCL18, CD206, IL-1β, PDGFβ mRNA): downregulated cancer/M2-type markers of macrophages more than Compound 1A
[2]; [5]
  TNFα induction: dramatically improved
  potency in reprogramming relative to comparator: superior potency relative to Compound 1A
[2]; 48 hours incubation, various concentrations
  M2 to M1 marker changes (FIGS. 3A-3F): same qualitative changes were observed, only the magnitude of the impact of Compound 1B was somewhat reduced
[3]
  stability during incubation: remained stable
Fibrotic lungs
  proinflammatory response in vivo (lung section staining): robust proinflammatory response
[4]; drug exposure limited to 2 hours, then 46 hours fresh medium
  reduction of secreted CCL18 and IL-1β, comparison of compounds: superior
[4]; [6]
  secreted CCL18 polypeptide: reductions
  secreted IL-1β polypeptide: reductions
